Test results reported in US8183292B2, “Chiral cyclic β-amino acids and their derivatives, pharmaceutical compositions containing them and the use of such compounds” (BioBlocks Magyarorszag Gyogyszerkemiai es Fejleszto Kft., priority 2006, dated 2012).

What was measured:
P-glycoprotein = test: Reversal of multidrug resistance: rhodamine 123 accumulation in human mdr1 transfected L5178 mouse T-cell lymphoma cells (flow cytometry); type: cell-based; details: for Multidrug resistance reversing effect (in words): 4 and 40 μg/mL, at higher concentration multiple of fluorescence activity of Verapamil; for Vrel = effect related to Verapamil: Verapamil at 10 μg/ml; for R = ratio of fluorescence and activity / R (activity ratio, fluorescence): rhodamine 123; for R: Table 4 concentration series; for Multidrug resistance reversing effect at lower concentrations (in words): lower concentration (4 μg/mL), similar values at higher concentration, indicating saturation
Procedure: L5178 mouse T-cell lymphoma cells were transfected with pHa MDR1/A retrovirus, by the method as described by J. L. Weaver [J. L. Weaver, G. Szabó, P. S. Pine, M. M. Gottesmann, S. Goldenberg and A. Aszalos: The effect of ion channel blockers, immunosuppressive agents and other drugs on the activity of the multidrug transporter. Int. […] Mdr-1-expressing cell lines were selected by culturing the transfected cells with 60 ng/mL of colchicine to maintain the expression of the MDR phenotype. L5178 (parent) mouse T-cell lymphoma cells and the human mdr1 transfected subline were cultured in McCoy's 5A medium supplemented with 10% by mass of heath-inactivated horce serum, L-glutamine and antibiotics. Both cell lines were cultured at 37° C. The mouse lymphoma cell line was maintained in a 5% CO2 atmosphere.
The assays were carried out by the method as described by J. Molnár et al. [J. Molnár, I. Mucsi, J. Nacsa, A. Hevér, N. Gyémánt, K. Ugocsai, P. Hegyes, S. Kiessig, D. Gaal, H. Lage and A. Varga: New silicon compounds as resistance modifiers against multidrug-resistant cells. […] The cell density was set to a value of 2×10^6/mL, then the cells were resuspended in a serum-free McCoy's 5A medium and divided in aliquots of 0.5 mL in Eppendorf centrifuge tubes. The tested compounds were added in different concentrations to different volumes (2.0-20.0 μL) of 1.0-10.0 mg/mL stock solutions and the samples were incubated for 10 minutes at room temperature. […] The fluorescence of the cell population was measured with a Beckton Dickinson FACScan flow cytometer. […] The percentage value of the mean fluorescence intensity was calculated for the treated MDR and for the parental cell lines as compared with the values obtained with the untreated cells. The activity ratio (R) was calculated on the basis of the measured fluorescence values by the following equation: […]

[1] = tested on: MRC-5 human fibroblast cell lines; test: Cytotoxicity on MRC-5 human fibroblast cell lines (Alamar Blue/resazurine, 24 h); type: cell-based; details: MRC-5 cells, 24 hours incubation, 1% DMSO
Procedure: The toxic effect of the compounds was measured on MRC-5 human fibroblast cell lines in accordance with the method that has been described in the article published by Molnár et al. [L. Molnár, G. M. Keserü, Á. Papp, Z. Lörincz, G. Ambrus és F. Darvas.: A neural network based classification scheme for cytotoxicity predictions: Validation on 30,000 compounds, Bioorg. Med. Chem. Lett. 16(4), 1037-9 (2006)]. The cells were incubated for a cell cycle (24 hours) with solutions of various concentrations prepared from the compounds, in the presence of 1% of DMSO. 3 parallel measurements were carried out with 6 different concentrations. The ratio of the viable cells was determined by reducing the Alamaar Blue (resazurine) reagent that was followed fluorimetrically. The measured materials were not toxic on the given cell line in a concentration of 128 μmol after incubation for one day.
In the following Table 1 the cytotoxicity of some compounds according to the invention is given.

| Structure (SMILES) | Effect in concentration series (in words) (P-glycoprotein; 0.04, 0.08, 0.4, 0.8 and 4 μg/mL) | Multidrug resistance reversing effect (in words) (P-glycoprotein) | Vrel = effect related to Verapamil (P-glycoprotein; Table 3, 4 μg/ml) | R = ratio of fluorescence and activity (P-glycoprotein; Table 3, 4 μg/ml) | Vrel = effect related to Verapamil (P-glycoprotein; Table 3, 40 μg/ml) | R = ratio of fluorescence and activity (P-glycoprotein; Table 3, 40 μg/ml) | R (P-glycoprotein; 0.04 μg/ml) | R (P-glycoprotein; 0.08 μg/ml) | R (P-glycoprotein; 0.4 μg/ml) | R (P-glycoprotein; 0.8 μg/ml) | R (P-glycoprotein; 4 μg/ml) | Concentration sufficient for a significant P-glycoprotein-inhibiting effect (P-glycoprotein; concentration series 0.04-4 μg/mL) [µg/mL] | Multidrug resistance reversing effect at lower concentrations (in words) (P-glycoprotein) | Survival (%) [c = 128 μM] [1] [%] | melting point [°C] | Vrel = effect related to Verapamil (P-glycoprotein; Table 2, 4 μg/ml) | R (activity ratio, fluorescence) (P-glycoprotein; Table 2, 4 μg/ml) | Vrel = effect related to Verapamil (P-glycoprotein; Table 2, 40 μg/ml) | R (activity ratio, fluorescence) (P-glycoprotein; Table 2, 40 μg/ml) |
| --- | --- | --- | --- | --- | --- | --- | --- | --- | --- | --- | --- | --- | --- | --- | --- | --- | --- | --- | --- |
| CCOC(=O)[C@H]1C[C@H]2C[C@@H]([C@H]1N(Cc1ccccc1)C(=S)Nc1cccc(OC)c1)C2(C)C [Compound 47, (1R,2R,3S,5R)-1-Benzyl-1-(3-Ethoxycarbonyl-6,6-Dimethylbicyclo[3.1.1]Heptan-2-yl)-3-(3-Methoxyphenyl)-Thiourea] | Dose-dependence was observed | significant dose-dependent effect | 3.02 | 34.76 | 3.07 | 35.35 | 1.44 | 1.60 | 6.03 | 7.16 | 35.20 | 0.4 | considerable multidrug resistance reversing effect | 97.7 | 109 to 112 | – | – | – | – |
| CCOC(=O)[C@@H]1C[C@H]2C[C@@H]([C@H]1NC(=S)Nc1cccc(OC)c1)C2(C)C [Compound 49, (1R,2R,3R,5R)-1-(3-Ethoxycarbonyl-6,6-Dimethylbicyclo[3.1.1]Heptan-2-yl)-3-(3-Methoxyphenyl)-Thiourea] | – | significant dose-dependent effect | – | – | – | – | – | – | – | – | – | – | – | 250.9 | 118 to 120 | 0.56 | 2.77 | 5.71 | 28.07 |
| CCOC(=O)[C@@H]1C[C@H]2C[C@@H]([C@H]1NC(=O)Nc1ccc(Cl)cc1)C2(C)C [Compound 50, (1R,2R,3R,5R)-1-(3-Ethoxycarbonyl-6,6-Dimethylbicyclo[3.1.1]Heptan-2-yl)-3-(4-Chlorophenyl)-Urea] | – | significant dose-dependent effect | 0.16 | 1.87 | 3.70 | 42.58 | – | – | – | – | – | – | – | 167.6 | 167 to 169 | – | – | – | – |
| CCOC(=O)[C@@H]1C[C@H]2C[C@@H]([C@H]1N(Cc1ccccc1)C(=S)Nc1cccc(OC)c1)C2(C)C [Compound 52, (1R,2R,3R,5R)-1-Benzyl-1-(3-Ethoxycarbonyl-6,6-Dimethylbicyclo[3.1.1]-Heptan-2-yl)-3-(3-Methoxyphenyl)-Thiourea] | – | – | 1.90 | 21.87 | 2.13 | 24.44 | – | – | – | – | – | – | considerable multidrug resistance reversing effect | 113.0 | 110 to 111 | – | – | – | – |
